US20250340590A1, “PEPTIDE HAVING ANTI-INFLAMMATORY ACTIVITY AND USE THEREOF” (CAREGEN CO., LTD., priority 2021, published 2025)

How the values were obtained:
Assay type in all cases: cell-based
Cox2 = Cox2 mRNA level by RT-PCR in TNFα-induced mouse splenocytes; settings: TNFα 20 nM, peptide at 5 μM and 50 μM, 3 hours, compared to group not treated with the peptide
Protocol: (§1) In order to further confirm the anti-inflammatory effect of the peptide treatment of the present invention in addition to the results of Experimental Example <3-1>, inflammation was induced by treating mouse splenocytes with TNFα, and the expression levels of inflammatory cytokines TNFα and IL-1β, and Cox2, which is an inflammation-inducing marker, genes were confirmed. In order to induce inflammation, the cells were treated with cytokine TNFα, and since TNFα corresponds to a signaling protein associated with inflammation, IL-1β corresponds to a cytokine that promotes inflammation, and Cox2 is a protein associated with inflammation, the degree of inflammation can be confirmed by measuring the expression levels of TNFα, Cox2, and IL-1β genes.
(§2) Mouse splenocytes were dispensed into a 24-well plate at a concentration of 1× 10^7 cells/well and cultured until the next day. The medium was replaced with serum-free medium, and after 3 hours, the cells were treated with TNFα and the peptide of the present invention and then cultured for another 3 hours. In order to induce inflammation, the cells were treated with TNFα at 20 nM, and the peptide at 5 μM and 50 μM, respectively. […] After quantifying the amount of isolated RNA, cDNA was synthesized using a cDNA synthesis kit (Intron, Korea), PCR was performed using a PCR premix (Intron, Korea) and primers for TNFα, Cox2, and IL-1B. […]

TNFα [1] = assay: TNFα secretion by ELISA in LPS-induced mouse splenocytes; settings: LPS 2 μg/mL, peptide at 5 μM and 50 μM, 24 hours
Protocol: Inflammation was induced in mouse splenocytes, and the secretion amounts of inflammatory cytokines TNFα, IL-1β, and IFNγ were confirmed. In order to induce inflammation, the cells were treated with an inflammation-inducing antigen, LPS, and since TNFα corresponds to a signaling protein associated with inflammation, IL-1β corresponds to a cytokine that promotes inflammation, and IFNγ also corresponds to a cytokine that promotes inflammation, the degree of inflammation can be confirmed by measuring the secretion amounts of TNFα, IL-1B, and IFNγ.
Mouse splenocytes were dispensed into a 24-well plate at a concentration of 1×10^7 cells/well and cultured until the next day. The medium was replaced with serum-free medium, and after 4 hours, the cells were treated with LPS and the peptide of the present invention and then cultured again for another 24 hours. In order to induce inflammation, the cells were treated with LPS at 2 μg/mL, and the peptide at 5 μM and 50 μM, respectively. […]

IFNγ = IFNγ secretion by ELISA in mouse splenocytes induced with LPS, TGFβ and IL-23; settings: LPS 2 μg/mL, TGFβ 20 ng/ml, IL-23 20 ng/mL, 24 hours
Text: Inflammation was induced by treating mouse splenocytes with LPS, which is an inflammation-inducing antigen, and TGFβ and IL-23, which are inflammatory cytokines, and the secretion amounts of the inflammatory cytokines IL-17, IL-1β, and IFNγ were confirmed. The descriptions of IL-17, IL-1B, and IFNγ are the same as above.
Mouse splenocytes were dispensed into a 24-well plate at a concentration of 1×10^7 cells/well and cultured until the next day. The medium was replaced with serum-free medium, and after 4 hours, the cells were treated with LPS, TGFβ, and IL-23 and the peptide of the present invention and then cultured again for another 24 hours. In order to induce inflammation, the cells were treated with LPS at 2 μg/mL, TGFβ at 20 ng/ml, IL-23 at 20 ng/mL, and the peptide at 5 μM and 50 μM, respectively. The mouse splenocytes in the group in which inflammation was not induced due to untreatment with LPS, TGFβ, and IL-23 (NON); the negative control group in which the cells were treated with LPS, TGFβ, and IL-23 but not treated with the peptide (NC); and the group in which the cells were treated with LPS, TGFβ, and IL-23 along with the peptide of the present invention at the same concentration as above, respectively, were reacted as described above and the cell cultures were recovered. […]

IL-1β = IL-1β mRNA level by RT-PCR in TNFα-induced mouse splenocytes; settings: TNFα 20 nM, peptide at 5 μM and 50 μM, 3 hours, compared to group not treated with the peptide
Protocol: as §1, §2

TNFα [2] = assay: TNFα mRNA level by RT-PCR in TNFα-induced mouse splenocytes; settings: TNFα 20 nM, peptide at 5 μM and 50 μM, 3 hours, compared to group not treated with the peptide
Protocol: as §1, §2

TWNS [peptide of the present invention]
decreased: mRNA expression level of Cox2 (Cox2) | secretion amount of TNFα (TNFα [1]) | secretion amount of IFNγ (IFNγ; peptide at 5 μM) | secretion amount of IFNγ (IFNγ; peptide at 50 μM) | mRNA expression level of IL-1β (IL-1β) | mRNA expression level of TNFα (TNFα [2])
